Source: PubChem BioAssay (NCI)
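Exposure lasted 48 hours, with cells grown in 96-well plates and compounds tested at five concentrations. GI50 = concentration required for 50% inhibition of growth. TGI: concentration producing complete growth inhibition.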

Key:
Assay in all cases: NCI-60 cell line screen, 48 h
[1] = tested on: HCT-116 colon
[2] = tested on: U251 CNS
[3] = tested on: KM12 colon
[4] = tested on: IGROV1 ovarian
[5] = tested on: NCI-H522 lung
[6] = tested on: MDA-MB-435
[7] = tested on: COLO 205 colon
[8] = tested on: MOLT-4 leukemia
[9] = tested on: SN12C renal
[10] = tested on: SNB-75 CNS
[11] = tested on: MALME-3M melanoma
[12] = tested on: SF-539 CNS
[13] = tested on: HCT-15 colon
[14] = tested on: SK-MEL-5 melanoma
[15] = tested on: 786-0 renal
[16] = tested on: NCI-H460 lung
[17] = tested on: NCI-H23 lung
[18] = tested on: T-47D breast
[19] = tested on: SF-295 CNS
[20] = tested on: NCI/ADR-RES ovarian
[21] = tested on: MCF7 breast
[22] = tested on: SF-268 CNS
[23] = tested on: ACHN renal
[24] = tested on: CCRF-CEM leukemia
[25] = tested on: SK-MEL-2 melanoma
[26] = tested on: OVCAR-5 ovarian
[27] = tested on: HCC-2998 colon
[28] = tested on: HL-60(TB) leukemia
[29] = tested on: TK-10 renal
[30] = tested on: HOP-92 NSCLC
[31] = tested on: HOP-62 NSCLC
[32] = tested on: OVCAR-8 ovarian
[33] = tested on: A549 NSCLC
[34] = tested on: NCI-H226 lung
[35] = tested on: UACC-257 melanoma
[36] = tested on: SR leukemia
[37] = tested on: SK-OV-3 ovarian
[38] = tested on: DU-145 prostate
[39] = tested on: HT29 colon
[40] = tested on: CAKI-1 renal
[41] = tested on: A498 renal
[42] = tested on: EKVX NSCLC
[43] = tested on: K-562 leukemia
[44] = tested on: MDA-MB-231 breast
[45] = tested on: SW-620 colon
[46] = tested on: HS 578T breast
[47] = tested on: RPMI-8226 leukemia
[48] = tested on: M14 melanoma
[49] = tested on: RXF 393 renal
[50] = tested on: PC-3 prostate
[51] = tested on: UO-31 renal
[52] = tested on: LOX IMVI melanoma
[53] = tested on: UACC-62 melanoma
[54] = tested on: SK-MEL-28 melanoma
[55] = tested on: SNB-19 CNS
[56] = tested on: OVCAR-4 ovarian
[57] = tested on: BT-549 breast

CCN(CC)CCCC(C)NCC(=O)NC(c1ccc2c(c1)OCO2)c1cc(Cl)c2cccnc2c1O (centres undefined) gave a GI50 [1] of 1.41 µM, a TGI [1] of 11.2 µM and a GI50 [2] of 2.1 µM. It also gave a TGI [2] of 13 µM, a GI50 [3] of 2.41 µM and a TGI [3] of 9.78 µM. It also gave a GI50 [4] of 2.53 µM, a TGI [4] of 10.8 µM and a GI50 [5] of 2.36 µM. It also gave a TGI [5] of 6.97 µM, a GI50 [6] of 1.81 µM and a TGI [6] of 3.87 µM. It also gave a GI50 [7] of 2.36 µM, a TGI [7] of 8.42 µM and a GI50 [8] of 0.626 µM. For the same molecule, the TGI [8] was 11.2 µM, the GI50 [9] was 3.15 µM and the TGI [9] was 13.7 µM. It also gave a GI50 [10] of 2.18 µM, a TGI [10] of 8.73 µM and a GI50 [11] of 1.68 µM. The TGI [11] was 3.29 µM, the GI50 [12] was 1.85 µM and the TGI [12] was 4.05 µM. The GI50 [13] was 2.44 µM, the TGI [13] was 11.9 µM and the GI50 [14] was 1.67 µM. The TGI [14] was 3.11 µM, the GI50 [15] was 2.3 µM and the TGI [15] was 5.75 µM. The GI50 [16] was 1.48 µM, the TGI [16] was 6.45 µM and the GI50 [17] was 2.99 µM. For the same molecule, the TGI [17] was 11.2 µM, the GI50 [18] was 2.89 µM and the TGI [18] was 9.19 µM. It also gave a GI50 [19] of 1.56 µM, a TGI [19] of 3.41 µM and a GI50 [20] of 3.31 µM. It also gave a TGI [20] of 15.5 µM, a GI50 [21] of 1.59 µM and a TGI [21] of 10.6 µM. The GI50 [22] was 2.21 µM, the TGI [22] was 10.6 µM and the GI50 [23] was 2.79 µM. The TGI [23] was 10.1 µM, the GI50 [24] was 0.909 µM and the TGI [24] was 12.2 µM. For the same molecule, the GI50 [25] was 2.37 µM, the TGI [25] was 6.33 µM and the GI50 [26] was 2.73 µM. For the same molecule, the TGI [26] was 15.5 µM, the GI50 [27] was 1.73 µM and the TGI [27] was 4.13 µM. For the same molecule, the GI50 [28] was 1.29 µM, the TGI [28] was 4.41 µM and the GI50 [29] was 3.36 µM. It also gave a TGI [29] of 15.1 µM, a GI50 [30] of 1.62 µM and a TGI [30] of 8.17 µM. For the same molecule, the GI50 [31] was 1.56 µM, the TGI [31] was 6.88 µM and the GI50 [32] was 2.56 µM. For the same molecule, the TGI [32] was 13.1 µM, the GI50 [33] was 2.83 µM and the TGI [33] was 13.4 µM. The GI50 [34] was 2.12 µM, the TGI [34] was 6.71 µM and the GI50 [35] was 1.92 µM. It also gave a TGI [35] of 4.18 µM, a GI50 [36] of 0.897 µM and a TGI [36] of 5.61 µM. The GI50 [37] was 2.93 µM, the TGI [37] was 8.45 µM and the GI50 [38] was 2.63 µM. It also gave a TGI [38] of 15.7 µM, a GI50 [39] of 2.41 µM and a TGI [39] of 10.4 µM. It also gave a GI50 [40] of 1.77 µM, a TGI [40] of 4.41 µM and a GI50 [41] of 2.35 µM. For the same molecule, the TGI [41] was 6.69 µM, the GI50 [42] was 1.65 µM and the TGI [42] was 11 µM. The GI50 [43] was 0.895 µM, the TGI [43] was 9.33 µM and the GI50 [44] was 1.35 µM. For the same molecule, the TGI [44] was 11.9 µM, the GI50 [45] was 2.32 µM and the TGI [45] was 11.9 µM. It also gave a GI50 [46] of 4.37 µM, a TGI [46] of 22.6 µM and a GI50 [47] of 2.36 µM. The TGI [47] was 7.77 µM, the GI50 [48] was 1.42 µM and the TGI [48] was 3.27 µM. For the same molecule, the GI50 [49] was 2.33 µM, the TGI [49] was 10.3 µM and the GI50 [50] was 2.03 µM. The TGI [50] was 12 µM, the GI50 [51] was 2.02 µM and the TGI [51] was 7.16 µM. The GI50 [52] was 1.22 µM, the TGI [52] was 3.13 µM and the GI50 [53] was 1.83 µM. The TGI [53] was 3.6 µM, the GI50 [54] was 1.47 µM and the TGI [54] was 3.08 µM. It also gave a GI50 [55] of 3.23 µM, a TGI [55] of 15.2 µM and a GI50 [56] of 1.39 µM. It also gave a TGI [56] of 14.7 µM, a GI50 [57] of 4.78 µM and a TGI [57] of 17.1 µM.
